{
  "source": "paper doi:10.1101/2025.03.14.643404",
  "about": "“A Bivalent Molecular Glue Linking Lysine Acetyltransferases to Oncogene-induced Cell Death” (bioRxiv, 2025)",
  "test_system": "H3K27ac",
  "test": "ChIP-seq for H3K27ac in SUDHL5",
  "assay_type": "cell-based, human",
  "conditions": "SUDHL5, 1 nM, 1 hour",
  "description": "25–30 million cells were treated with TCIP3 or DMSO for indicated timepoints. Cells were washed in PBS containing TCIP3 or DMSO and crosslinked for 11 min in CiA Fix Buffer (50 mM HEPES pH 8.0, 1 mM EDTA, 0.5 mM EGTA, 100 mM NaCl) with addition of formaldehyde to a final concentration of 1%. The crosslinking reaction was quenched by glycine added at 0.125 M final concentration. Crosslinked cells were centrifuged at 1,000 × g for 5 min. […] Library size distributions were confirmed using an Agilent Bioanalyzer and High Sensitivity DNA reagents (Agilent 5067) and concentrations determined by qPCR. […]\nThe data quality was checked using fastq (https://www.bioinformatics.babraham.ac.uk/projects/fastqc/). The raw reads were trimmed from adapters with cutadapt (parameters: -a […] -A […]) and raw reads were aligned to hg38 human genome assembly using bowtie2 (parameters: --local --maxins 1000). Low quality reads, duplicated reads and reads with multiple alignments were removed using samtools[120] and Picard (https://broadinstitute.github.io/picard/). macs2[121] was used to map position of peaks with FDR cutoff of 0.05. […] All browser tracks and metaprofiles shown were calculated with sequence-depth-normalized, replicate-merged (bigWigMerge[125]) and, for ChIP-seq, input-subtracted data (deeptools bigWigCompare). […]",
  "data": [
    {"smiles": "CNC(=O)COc1cc2cc(Nc3nc(N4CCC(C(=O)N5CCN(CCC(=O)N6CCC(n7nc(N8CCCc9cc(-c%10cnn(C)c%10)c(C(F)F)cc98)c8c7CCN(C(=O)NC)C8)CC6)CC5)CC4)ncc3Cl)cc(OC)c2n(C)c1=O", "note": "[TCIP3]", "values": [
      {"measurement": "H3K27ac peaks gained", "result": 533},
      {"measurement": "H3K27ac peaks lost", "result": "5,216"}
    ]}
  ]
}
